Reference: patent publication US11261186B2, “Biaryl derivative as GPR120 agonist” (LG CHEM, LTD., priority 2014, dated 2022)

Molecular target: T1, hGPR120 (Homo sapiens, UniProt Q5NUL3)
T1 construct: expressed in transfected cells; host or cells: CHO-K1
T1 sequence (Q5NUL3 1-361): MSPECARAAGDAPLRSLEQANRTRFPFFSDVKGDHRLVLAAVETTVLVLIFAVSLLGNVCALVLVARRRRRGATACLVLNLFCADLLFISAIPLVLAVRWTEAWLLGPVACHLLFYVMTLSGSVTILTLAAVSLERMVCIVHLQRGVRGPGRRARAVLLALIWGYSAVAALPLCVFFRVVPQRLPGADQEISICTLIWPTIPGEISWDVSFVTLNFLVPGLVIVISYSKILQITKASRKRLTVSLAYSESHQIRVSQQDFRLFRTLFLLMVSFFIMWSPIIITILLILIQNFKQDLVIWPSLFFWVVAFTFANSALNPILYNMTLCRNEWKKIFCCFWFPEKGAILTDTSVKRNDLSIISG
Assay: Measurement of Activity of GPR120 Agonist (Cell-Based Assay), Calcium 5 dye fluorescence
Details: CHO-K1 cells expressing Ga16 and hGPR120
Outline: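 Gα16/hGPR120 CHO-K1; 18 h plating, 37 °C, 5% CO2; Calcium 5 dye load 1 h; agonist serial dilution, 0.5% DMSO final; fluor Ex485/Em525; response as % of 1% DMSO vehicle.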

CC(C)Sc1ncccc1-c1cc(F)c(N2CCC(CCC(=O)O)CC2)c(F)c1 [Example 126, 3-[1-[2,6-difluoro-4-(2-isopropylsulfanyl-3-pyridyl)phenyl]-4-piperidyl]propanoic acid]
EC50: < 200 nM

O=C(O)C1CC1CCNc1c(F)cc(-c2cccnc2SC2CCCC2)cc1F (centres unmarked) [Example 128, 2-[2-[4-(2-cyclopentylsulfanyl-3-pyridyl)-2,6-difluoro-anilino]ethyl]cyclopropanecarboxylic acid]
EC50: < 200 nM

CC(C)Sc1ncccc1-c1cc(F)c(-n2cc(CCC(=O)O)cn2)c(F)c1 [Example 131, 3-[1-[2,6-difluoro-4-(2-isopropylsulfanyl-3-pyridyl)phenyl]pyrazol-4-yl]propanoic acid]
EC50: 2000 to 20000 nM

O=C(O)CCCN1CCc2cc(-c3cccnc3SC3CCCC3)ccc21 [Example 132, 4-[5-(2-cyclopentylsulfanyl-3-pyridyl)indolin-1-yl]butanoic acid]
EC50: < 200 nM

CC(C)Sc1ncccc1-c1cc(F)c(N2CC(CCC(=O)O)C2)c(F)c1 [Example 133, 3-[1-[2,6-difluoro-4-(2-isopropylsulfanyl-3-pyridyl)phenyl]azetidin-3-yl]propanoic acid]
EC50: 200 to 2000 nM

CC(C)Sc1ncccc1-c1cc(F)c(N2CC[C@H](CC(=O)O)C2)c(F)c1 [Example 134, 2-[(3R)-1-[2,6-difluoro-4-(2-isopropylsulfanyl-3-pyridyl)phenyl]pyrrolidin-3-yl]acetic acid]
EC50: < 200 nM

O=C(O)C[C@H]1CCN(c2c(F)cc(-c3cccnc3OC3CCCC3)cc2F)C1 [Example 135, 2-[(3R)-1-[4-[2-(cyclopentoxy)-3-pyridyl]-2,6-difluoro-phenyl]pyrrolidin-3-yl]acetic acid]
EC50: < 200 nM

CC(C)Sc1ncccc1-c1cc(F)c(N2CC[C@@H](CC(=O)O)C2)c(F)c1 [Example 136, 2-[(3S)-1-[2,6-difluoro-4-(2-isopropylsulfanyl-3-pyridyl)phenyl]pyrrolidin-3-yl]acetic acid]
EC50: < 200 nM

O=C(O)C[C@@H]1CCN(c2c(F)cc(-c3cccnc3OC3CCCC3)cc2F)C1 [Example 137, 2-[(3S)-1-[4-[2-(cyclopentoxy)-3-pyridyl]-2,6-difluoro-phenyl]pyrrolidin-3-yl]acetic acid]
EC50: < 200 nM

CC(C)Sc1ncccc1-c1ccc(N2CCC(CC(=O)O)CC2)c(F)c1 [Example 138, 2-[1-[2-fluoro-4-(2-isopropylsulfanyl-3-pyridyl)phenyl]-4-piperidyl]acetic acid]
EC50: 200 to 2000 nM

O=C(O)CC1CCN(c2ccc(-c3cccnc3OC3CCCC3)cc2F)CC1 [Example 139, 2-[1-[4-[2-(cyclopentoxy)-3-pyridyl]-2-fluoro-phenyl]-4-piperidyl]acetic acid]
EC50: 200 to 2000 nM

CC(C)Sc1cccc(-c2ccc3cc(CCC(=O)O)ccc3c2)n1 [Example 140, 3-[6-(6-isopropylsulfanyl-pyridin-2-yl)-naphthalen-2-yl]-propanoic acid]
EC50: 200 to 2000 nM

O=C(O)CCc1ccc2cc(-c3cccc(Oc4ccccc4)n3)ccc2c1 [Example 141, 3-[6-(6-phenoxy-pyridin-2-yl)-naphthalen-2-yl]-propanoic acid]
EC50: < 200 nM

O=C(O)CCc1ccc2cc(-c3ccccc3Oc3ccccc3)ccc2c1 [Example 142, 3-[6-(2-phenoxy-phenyl)-naphthalen-2-yl]-propanoic acid]
EC50: 200 to 2000 nM

O=C(O)CCc1ccc2cc(-c3cccc(SC4CCCC4)n3)ccc2c1 [Example 143, 3-[6-(6-cyclopentylsulfanyl-pyridin-2-yl)-naphthalen-2-yl]-propanoic acid]
EC50: 2000 to 20000 nM

O=C(O)CCc1ccc2cc(-c3cccnc3Oc3ccccc3)ccc2c1 [Example 144, 3-[6-(2-phenoxy-pyridin-3-yl)-naphthalen-2-yl]-propanoic acid]
EC50: < 200 nM

CC(C)Oc1cccc(-c2ccc3cc(CCC(=O)O)ccc3c2)c1 [Example 146, 3-[6-(3-isopropoxy-phenyl)-naphthalen-2-yl]-propanoic acid]
EC50: 200 to 2000 nM

O=C(O)CCc1ccc2cc(-c3cccc(OC4CCC4)c3)ccc2c1 [Example 147, 3-[6-(3-cyclobutoxy-phenyl)-naphthalen-2-yl]-propanoic acid]
EC50: < 200 nM

O=C(O)CCc1ccc2cc(-c3cccc(OC4CCC4)n3)ccc2c1 [Example 148, 3-[6-(6-cyclobutoxy-pyridin-2-yl)-naphthalen-2-yl]-propanoic acid]
EC50: 200 to 2000 nM

CC(C)Oc1ncccc1-c1ccc2cc(CCC(=O)O)ccc2c1 [Example 149, 3-[6-(2-isopropoxy-pyridin-3-yl)-naphthalen-2-yl]-propanoic acid]
EC50: < 200 nM

O=C(O)CCc1ccc2cc(-c3cccnc3OC3CCCC3)ccc2c1 [Example 150, 3-[6-(2-cyclopentyloxy-pyridin-3-yl)-naphthalen-2-yl]-propanoic acid]
EC50: < 200 nM

O=C(O)CCc1ccc2cc(-c3ccccc3Oc3ccccc3F)ccc2c1 [Example 151, 3-{6-[2-(2-fluoro-phenoxy)-phenyl]-naphthalen-2-yl}-propanoic acid]
EC50: 2000 to 20000 nM

O=C(O)CCc1ccc2cc(-c3cccc(Oc4ccccc4F)n3)ccc2c1 [Example 152, 3-{6-[6-(2-fluoro-phenoxy)-pyridin-2-yl]-naphthalen-2-yl}-propanoic acid]
EC50: 200 to 2000 nM

O=C(O)CCCSc1c(F)cc(-c2cccc3c2OC(F)(F)O3)cc1F [Example 153, 4-[4-(2,2-difluoro-benzo[1,3]dioxol-4-yl)-2,6-difluoro-phenylsulfanyl]-butyric acid]
EC50: < 200 nM

O=C(O)CCCSc1ccc(-c2cccc3c2OC(F)(F)O3)cc1F [Example 154, 4-[4-(2,2-difluoro-benzo[1,3]dioxol-4-yl)-2-fluoro-phenylsulfanyl]-butyric acid]
EC50: < 200 nM

O=C(O)CCCSc1ccc(-c2cccc3c2OC(F)(F)O3)cc1 [Example 155, 4-[4-(2,2-difluoro-benzo[1,3]dioxol-4-yl)-phenylsulfanyl]-butyric acid]
EC50: < 200 nM

O=C(O)CCCSc1ccc(-c2cccc3c2OC2(CCCC2)O3)cc1 [Example 156, 4-(4-spiro[1,3-benzodioxol-2,1′-cyclopentane]-4-ylphenyl)sulfanylbutanoic acid]
EC50: 200 to 2000 nM

O=C(O)CCCSc1ccc(-c2cccc3c2OC2(CCCC2)O3)cc1F [Example 157, 4-(2-fluoro-4-spiro[1,3-benzodioxol-2,1′-cyclopentan]-4-yl-phenyl)sulfanylbutanoic acid]
EC50: < 200 nM

CC(C)Oc1ncccc1-c1ccc(C(C)(C)CCCC(=O)O)cc1 [Example 158, 5-[4-(2-isopropoxy-pyridin-3-yl)-phenyl]-5-methyl-hexanoic acid]
EC50: 200 to 2000 nM

CC(C)Sc1ncccc1-c1ccc(C(C)(C)CCCC(=O)O)cc1 [Example 159, 5-[4-(2-isopropylsulfanyl-pyridin-3-yl)-phenyl]-5-methyl-hexanoic acid]
EC50: < 200 nM

CC(C)(CCCC(=O)O)c1ccc(-c2cccnc2OC2CCCC2)cc1 [Example 160, 5-[4-(2-cyclopentyloxy-pyridin-3-yl)-phenyl]-5-methyl-hexanoic acid]
EC50: < 200 nM

CC(C)(CCCC(=O)O)c1ccc(-c2cccnc2OC2CCCC2)cc1F [Example 161, 5-[4-(2-cyclopentyloxy-pyridin-3-yl)-2-fluoro-phenyl]-5-methyl-hexanoic acid]
EC50: 200 to 2000 nM

CC(C)(CCCC(=O)O)c1c(F)cc(-c2cccnc2OC2CCCC2)cc1F [Example 162, 5-[4-(2-cyclopentyloxy-pyridin-3-yl)-2,6-difluoro-phenyl]-5-methyl-hexanoic acid]
EC50: 200 to 2000 nM

CC(C)(CCCC(=O)O)c1ccc(-c2cccnc2SC2CCCC2)cc1 [Example 163, 5-[4-(2-cyclopentylsulfanyl-pyridin-3-yl)-phenyl]-5-methyl-hexanoic acid]
EC50: 200 to 2000 nM

CC(C)(CCCC(=O)O)c1c(F)cc(-c2cccnc2SC2CCC2)cc1F [Example 164, 5-[4-(2-cyclobutylsulfanyl-pyridin-3-yl)-2,6-difluoro-phenyl]-5-methyl-hexanoic acid]
EC50: 200 to 2000 nM

CC(C)(CCCC(=O)O)c1ccc(-c2cccnc2SC2CCC2)cc1 [Example 165, 5-[4-(2-cyclobutylsulfanyl-pyridin-3-yl)-phenyl]-5-methyl-hexanoic acid]
EC50: < 200 nM

O=C(O)CCCC1(c2c(F)cc(-c3cccnc3OC3CCCC3)cc2F)CC1 [Example 166, 4-{1-[4-(2-cyclopentyloxy-pyridin-3-yl)-2,6-difluoro-phenyl]-cyclopropyl}-butyric acid]
EC50: < 200 nM

O=C(O)CCCC1(c2c(F)cc(-c3cccnc3SC3CCC3)cc2F)CC1 [Example 167, 4-{1-[4-(2-cyclobutylsulfanyl-pyridin-3-yl)-2,6-difluoro-phenyl]-cyclopropyl}-butyric acid]
EC50: 200 to 2000 nM

O=C(O)CCCC1(c2c(F)cc(-c3cccc(OC4CCC4)n3)cc2F)CC1 [Example 168, 4-{1-[4-(6-cyclobutoxy-pyridin-2-yl)-2,6-difluoro-phenyl]-cyclopropyl}-butyric acid]
EC50: < 200 nM

O=C(O)CCCC1(c2c(F)cc(-c3cccnc3OCC3CCC3)cc2F)CC1 [Example 169, 4-{1-[4-(2-cyclobutylmethoxy-pyridin-3-yl)-2,6-difluoro-phenyl]-cyclopropyl}-butyric acid]
EC50: 200 to 2000 nM

O=C(O)CCCC1(c2c(F)cc(-c3cccc(OCC4CC4)n3)cc2F)CC1 [Example 170, 4-{1-[4-(6-cyclopropylmethoxy-pyridin-2-yl)-2,6-difluoro-phenyl]-cyclopropyl}-butyric acid]
EC50: < 200 nM
